Test results: patent publication US8445492B2, “Method for inhibiting growth of cancer cells and cell telomere and diseases of cell proliferation by using heteroannelated anthraquinone derivative compounds” (National Defense Medical Center, priority 2008, dated 2013)

Assays:
Assay type in all cases: cell-based
MDA-MB-435 [1] = test: in vitro test at 1.0×10^−5 M, Breast cancer cell; conditions: 1.0×10^−5 molal concentration (M)
ACHN = test: in vitro test at 1.0×10^−5 M, Kidney cancer cell; conditions: 1.0×10^−5 molal concentration (M)
UACC-257 [2] = test: in vitro test at 1.0×10^−5 M, Skin cancer cell; conditions: 1.0×10^−5 molal concentration (M)
UACC-62 = test: in vitro test at 1.0×10^−5 M, Skin cancer cell; conditions: 1.0×10^−5 molal concentration (M)
SR = test: NCI DTP in-vitro dose response, Leukemia
COLO 205 = test: NCI DTP in-vitro dose response, Colon Cancer
SF-268 = test: NCI DTP in-vitro dose response, CNS Cancer
SF-539 = test: NCI DTP in-vitro dose response, CNS Cancer
SK-MEL-28 = test: NCI DTP in-vitro dose response, Melanoma
UACC-257 [3] = test: NCI DTP in-vitro dose response, Melanoma
OVCAR-3 = test: NCI DTP in-vitro dose response, Ovarian Cancer
OVCAR-4 = test: NCI DTP in-vitro dose response, Ovarian Cancer
OVCAR-8 = test: NCI DTP in-vitro dose response, Ovarian Cancer
SN12C = test: NCI DTP in-vitro dose response, Renal Cancer
UO-31 = test: NCI DTP in-vitro dose response, Renal Cancer
MCF7 = test: NCI DTP in-vitro dose response, Breast Cancer
MDA-MB-435 [4] = test: NCI DTP in-vitro dose response, Breast Cancer
BT-549 = test: NCI DTP in-vitro dose response, Breast Cancer
T-47D = test: NCI DTP in-vitro dose response, Breast Cancer
MDA-MB-468 = test: NCI DTP in-vitro dose response, Breast Cancer

## CCc1nc2ccc3c(c2[nH]1)C(=O)c1ccccc1C3=O [No. 4, 2-Ethyl-1(3)H-anthra[1,2-d]imidazole-6,11-dione]
MDA-MB-435 [1]
  inhibition effect on cancer cell line (Table 2 value): 84.39
ACHN
  inhibition effect on cancer cell line (Table 2 value): 24.97
UACC-257 [2]
  inhibition effect on cancer cell line (Table 2 value): 39.69
UACC-62
  inhibition effect on cancer cell line (Table 2 value): 51.35

## O=C1c2ccccc2C(=O)c2c1ccc1nsnc21 [No. 22, Anthra[2,1-c][1,2,5]thiadiazole-6,11-dione]
SR; Homo sapiens, SR
  GI50: 6.89 µM
SR; Homo sapiens, SR, read-out: LC50
  CC50: > 100 µM
SR; Log10 Concentration −4.0
  Percent Growth: −22%
SR; Log10 Concentration −5.0
  Percent Growth: 41%
SR; Log10 Concentration −6.0
  Percent Growth: 99%
SR; Log10 Concentration −7.0
  Percent Growth: 112%
SR; Log10 Concentration −8.0
  Percent Growth: 108%
SR; SR
  TGI: >1.00E−4
COLO 205; COLO 205
  TGI: 3.98E−6
COLO 205; Homo sapiens, COLO 205
  GI50: 1.97 µM
COLO 205; Homo sapiens, COLO 205, read-out: LC50
  CC50: 8.04 µM
COLO 205; Log10 Concentration −4.0
  Percent Growth: −71%
COLO 205; Log10 Concentration −5.0
  Percent Growth: −66%
COLO 205; Log10 Concentration −6.0
  Percent Growth: 98%
COLO 205; Log10 Concentration −7.0
  Percent Growth: 87%
COLO 205; Log10 Concentration −8.0
  Percent Growth: 95%
SF-268; Homo sapiens, SF-268
  GI50: 3.55 µM
SF-268; Homo sapiens, SF-268, read-out: LC50
  CC50: > 100 µM
SF-268; Log10 Concentration −4.0
  Percent Growth: −46%
SF-268; Log10 Concentration −5.0
  Percent Growth: 17%
SF-268; Log10 Concentration −6.0
  Percent Growth: 90%
SF-268; Log10 Concentration −7.0
  Percent Growth: 98%
SF-268; Log10 Concentration −8.0
  Percent Growth: 101%
SF-268; SF-268
  TGI: 1.87E−5
SF-539; Homo sapiens, SF-539
  GI50: 1.52 µM
SF-539; Homo sapiens, SF-539, read-out: LC50
  CC50: 5.38 µM
SF-539; Log10 Concentration −4.0
  Percent Growth: −98%
SF-539; Log10 Concentration −5.0
  Percent Growth: −99%
SF-539; Log10 Concentration −6.0
  Percent Growth: 83%
SF-539; Log10 Concentration −7.0
  Percent Growth: 84%
SF-539; Log10 Concentration −8.0
  Percent Growth: 90%
SF-539; SF-539
  TGI: 2.86E−6
SK-MEL-28; Homo sapiens, SK-MEL-28
  GI50: 9.88 µM
SK-MEL-28; Homo sapiens, SK-MEL-28, read-out: LC50
  CC50: 50.3 µM
SK-MEL-28; Log10 Concentration −4.0
  Percent Growth: −93%
SK-MEL-28; Log10 Concentration −5.0
  Percent Growth: 50%
SK-MEL-28; Log10 Concentration −6.0
  Percent Growth: 107%
SK-MEL-28; Log10 Concentration −7.0
  Percent Growth: 106%
SK-MEL-28; Log10 Concentration −8.0
  Percent Growth: 103%
SK-MEL-28; SK-MEL-28
  TGI: 2.24E−5
UACC-257 [3]; Homo sapiens, UACC-257
  GI50: 1.48 µM
UACC-257 [3]; Homo sapiens, UACC-257, read-out: LC50
  CC50: 6.21 µM
UACC-257 [3]; Log10 Concentration −4.0
  Percent Growth: −91%
UACC-257 [3]; Log10 Concentration −5.0
  Percent Growth: −83%
UACC-257 [3]; Log10 Concentration −6.0
  Percent Growth: 77%
UACC-257 [3]; Log10 Concentration −7.0
  Percent Growth: 101%
UACC-257 [3]; Log10 Concentration −8.0
  Percent Growth: 96%
UACC-257 [3]; UACC-257
  TGI: 3.03E−6
OVCAR-3; Homo sapiens, OVCAR-3
  GI50: 2.06 µM
OVCAR-3; Homo sapiens, OVCAR-3, read-out: LC50
  CC50: 28.2 µM
OVCAR-3; Log10 Concentration −4.0
  Percent Growth: −75%
OVCAR-3; Log10 Concentration −5.0
  Percent Growth: −29%
OVCAR-3; Log10 Concentration −6.0
  Percent Growth: 86%
OVCAR-3; Log10 Concentration −7.0
  Percent Growth: 110%
OVCAR-3; Log10 Concentration −8.0
  Percent Growth: 116%
OVCAR-3; OVCAR-3
  TGI: 5.59E−6
OVCAR-4; Homo sapiens, OVCAR-4
  GI50: 0.52 µM
OVCAR-4; Homo sapiens, OVCAR-4, read-out: LC50
  CC50: 4.19 µM
OVCAR-4; Log10 Concentration −4.0
  Percent Growth: −100%
OVCAR-4; Log10 Concentration −5.0
  Percent Growth: −100%
OVCAR-4; Log10 Concentration −6.0
  Percent Growth: 32%
OVCAR-4; Log10 Concentration −7.0
  Percent Growth: 94%
OVCAR-4; Log10 Concentration −8.0
  Percent Growth: 107%
OVCAR-4; OVCAR-4
  TGI: 1.76E−6
OVCAR-8; Homo sapiens, OVCAR-8
  GI50: 0.859 µM
OVCAR-8; Homo sapiens, OVCAR-8, read-out: LC50
  CC50: > 100 µM
OVCAR-8; Log10 Concentration −4.0
  Percent Growth: −38%
OVCAR-8; Log10 Concentration −5.0
  Percent Growth: −43%
OVCAR-8; Log10 Concentration −6.0
  Percent Growth: 46%
OVCAR-8; Log10 Concentration −7.0
  Percent Growth: 102%
OVCAR-8; Log10 Concentration −8.0
  Percent Growth: 105%
OVCAR-8; OVCAR-8
  TGI: 3.28E−6
SN12C; Homo sapiens, SN12C
  GI50: 2.35 µM
SN12C; Homo sapiens, SN12C, read-out: LC50
  CC50: > 100 µM
SN12C; Log10 Concentration −4.0
  Percent Growth: −35%
SN12C; Log10 Concentration −5.0
  Percent Growth: −7%
SN12C; Log10 Concentration −6.0
  Percent Growth: 83%
SN12C; Log10 Concentration −7.0
  Percent Growth: 103%
SN12C; Log10 Concentration −8.0
  Percent Growth: 91%
SN12C; SN12C
  TGI: 8.42E−6
UO-31; Homo sapiens, UO-31
  GI50: 1.95 µM
UO-31; Homo sapiens, UO-31, read-out: LC50
  CC50: 7.41 µM
UO-31; Log10 Concentration −4.0
  Percent Growth: −66%
UO-31; Log10 Concentration −5.0
  Percent Growth: −72%
UO-31; Log10 Concentration −6.0
  Percent Growth: 100%
UO-31; Log10 Concentration −7.0
  Percent Growth: 118%
UO-31; Log10 Concentration −8.0
  Percent Growth: 111%
UO-31; UO-31
  TGI: 3.81E−6
MCF7; Homo sapiens, MCF7
  GI50: 1.24 µM
MCF7; Homo sapiens, MCF7, read-out: LC50
  CC50: 7.72 µM
MCF7; Log10 Concentration −4.0
  Percent Growth: −63%
MCF7; Log10 Concentration −5.0
  Percent Growth: −64%
MCF7; Log10 Concentration −6.0
  Percent Growth: 62%
MCF7; Log10 Concentration −7.0
  Percent Growth: 77%
MCF7; Log10 Concentration −8.0
  Percent Growth: 88%
MCF7; MCF7
  TGI: 3.10E−6
MDA-MB-435 [4]; Homo sapiens, MDA-MB-435
  GI50: 1.91 µM
MDA-MB-435 [4]; Homo sapiens, MDA-MB-435, read-out: LC50
  CC50: 87.8 µM
MDA-MB-435 [4]; Log10 Concentration −4.0
  Percent Growth: −51%
MDA-MB-435 [4]; Log10 Concentration −5.0
  Percent Growth: −32%
MDA-MB-435 [4]; Log10 Concentration −6.0
  Percent Growth: 82%
MDA-MB-435 [4]; Log10 Concentration −7.0
  Percent Growth: 102%
MDA-MB-435 [4]; Log10 Concentration −8.0
  Percent Growth: 100%
MDA-MB-435 [4]; MDA-MB-435
  TGI: 5.23E−6
BT-549; BT-549
  TGI: 3.55E−5
BT-549; Homo sapiens, BT-549
  GI50: 13.1 µM
BT-549; Homo sapiens, BT-549, read-out: LC50
  CC50: 96.2 µM
BT-549; Log10 Concentration −4.0
  Percent Growth: −52%
BT-549; Log10 Concentration −5.0
  Percent Growth: 64%
BT-549; Log10 Concentration −6.0
  Percent Growth: 126%
BT-549; Log10 Concentration −7.0
  Percent Growth: 102%
BT-549; Log10 Concentration −8.0
  Percent Growth: 92%
T-47D; Homo sapiens, T47D
  GI50: 0.375 µM
T-47D; Homo sapiens, T47D, read-out: LC50
  CC50: 7.79 µM
T-47D; Log10 Concentration −4.0
  Percent Growth: −60%
T-47D; Log10 Concentration −5.0
  Percent Growth: −59%
T-47D; Log10 Concentration −6.0
  Percent Growth: 22%
T-47D; Log10 Concentration −7.0
  Percent Growth: 88%
T-47D; Log10 Concentration −8.0
  Percent Growth: 91%
T-47D; T-47D
  TGI: 1.87E−6
MDA-MB-468; Homo sapiens, MDA-MB-468
  GI50: 1.83 µM
MDA-MB-468; Homo sapiens, MDA-MB-468, read-out: LC50
  CC50: 5.72 µM
MDA-MB-468; Log10 Concentration −4.0
  Percent Growth: −99%
MDA-MB-468; Log10 Concentration −5.0
  Percent Growth: −99%
MDA-MB-468; Log10 Concentration −6.0
  Percent Growth: 103%
MDA-MB-468; Log10 Concentration −7.0
  Percent Growth: 101%
MDA-MB-468; Log10 Concentration −8.0
  Percent Growth: 97%
MDA-MB-468; MDA-MB-468
  TGI: 3.24E−6
